The source of these data is ChEMBL document CHEMBL6109039, “Designed and synthesized novel tripeptides targeting diabetes and its related pathologies” (Eur J Med Chem, 2025).

Residues, ends and D or L forms follow the SMILES beside them.

For data set [1], the system named is Mus musculus. Kind of data set: Antidiabetic activity in Nicotinamide/Streptozotocin induced male Balb/c mouse model assessed as reduction in fasting blood glucose levels at 63.81 ug/kg, ip measured immediately by glucometer analysis (reference value: 127.50 +/- 6.87 mg/dl). The conditions noted are these: dose 63.81 µg/kg. Type of data set: functional.
Data set [2] has as its target T1, Albumin (Homo sapiens, UniProt P02768). Nature of the data set: Inhibition of D-fructose glycation in human serum albumin model by measuring ketoamine moieties incubated for 3 days by Nitroblue tetrazolium (NBT) reduction assay (reference value: 152.64 nmol/mL). The following applies: 72 h, time 3 day.
Data set [3] concerns the target T1, Albumin. Nature of the data set: Inhibition of D-fructose glycation in human serum albumin model by measuring absorbance at 279 nm incubated for 14 days by UV spectroscopic analysis (reference value: 2.333). The conditions noted are these: 336 h, time 14 day.
The target in data set [4] is T1, Albumin. Nature of the data set: Inhibition of D-glucose glycation in human serum albumin model by measuring absorbance at 279 nm incubated for 30 days by UV spectroscopic analysis (reference value: 2.295). The following applies: 720 h, time 30 day.
Data set [5] relates to Mus musculus. Nature of the data set: Antidiabetic activity in Nicotinamide/Streptozotocin induced male Balb/c mouse model assessed as reduction in alanine aminotransferase level in blood at 63.81 ug/kg, ip treated for 21 days (reference value: 111 +/- 5.05 U/L). The data set is classed as functional. The following applies: dose 63.81 µg/kg, time 21 day.
The target in data set [6] is T1, Albumin. Kind of data set: Inhibition of D-fructose glycation in human serum albumin model by measuring absorbance at 279 nm incubated for 5 days by UV spectroscopic analysis (reference value: 1.056). The following applies: 120 h, time 5 day.
The subject of data set [7] is Mus musculus. Nature of the data set: Antidiabetic activity in Nicotinamide/Streptozotocin induced male Balb/c mouse model assessed as reduction in fasting blood glucose levels at 63.81 ug/kg, ip measured after 7 days by glucometer analysis (reference value: 160.5 +/- 8.02 mg/dl). Type of data set: functional. The conditions noted are these: dose 63.81 µg/kg, time 7 day.

Data set [8] deals with T1, Albumin. Nature of the data set: Inhibition of D-glucose glycation in human serum albumin model by measuring ketoamine moieties incubated for 5 days by Nitroblue tetrazolium (NBT) reduction assay (reference value: 18.58 nmol/mL). The following applies: 120 h, time 5 day.
Data set [9] addresses T1, Albumin. Kind of data set: Inhibition of D-glucose glycation in human serum albumin model by measuring absorbance at 279 nm incubated for 26 days by UV spectroscopic analysis (reference value: 2.301). The following applies: 624 h, time 26 day.
The test system of data set [10] is Mus musculus. Nature of the data set: Antidiabetic activity in Nicotinamide/Streptozotocin induced male Balb/c mouse model assessed as reduction in Triglycerides level in blood at 63.81 ug/kg, ip treated for 21 days (reference value: 61 +/- 3.05 mg/dL). Type of data set: functional. The conditions noted are these: dose 63.81 µg/kg, time 21 day.
The target of data set [11] is T1, Albumin. Nature of the data set: Inhibition of D-fructose glycation in human serum albumin model by measuring ketoamine moieties incubated for 30 days by Nitroblue tetrazolium (NBT) reduction assay (reference value: 128.71 nmol/mL). The following applies: 720 h, time 30 day.
Data set [12] deals with T1, Albumin. Nature of the data set: Inhibition of D-fructose glycation in human serum albumin model incubated for 14 days by UV spectroscopic analysis relative to control. The conditions noted are these: 336 h, time 14 day.
In data set [13] the target is T1, Albumin. Kind of data set: Inhibition of D-glucose glycation in human serum albumin model assessed as reduction in fluorescence intensity incubated for 3 days by UV spectroscopic analysis relative to control. The following applies: 72 h, time 3 day.
In data set [14] the test system is Mus musculus. Nature of the data set: Antidiabetic activity in Nicotinamide/Streptozotocin induced male Balb/c mouse model assessed as reduction in fasting blood glucose levels at 63.81 ug/kg, ip measured after 21 days by glucometer analysis (reference value: 180.5 +/- 9.02 mg/dl). The data set is classed as functional. The following applies: dose 63.81 µg/kg, time 21 day.

Data set [15] deals with T1, Albumin. Kind of data set: Inhibition of D-glucose glycation in human serum albumin model by measuring absorbance at 279 nm incubated for 33 days by UV spectroscopic analysis (reference value: 1.997). The following applies: 792 h, time 33 day.
Data set [16] has as its system Mus musculus. Nature of the data set: Antidiabetic activity in Nicotinamide/Streptozotocin induced male Balb/c mouse model assessed as reduction in VLDL-cholesterol level in blood at 63.81 microg/kg, ip treated for 21 days (reference value: 14 +/- 0.6 mg/dL). The data set is classed as functional. The conditions noted are these: dose 63.81 µg/kg, time 21 day.
Data set [17] has as its target T1, Albumin. Nature of the data set: Inhibition of D-fructose glycation in human serum albumin model by measuring ketoamine moieties incubated for 7 days by Nitroblue tetrazolium (NBT) reduction assay (reference value: 125.33 nmol/mL). The conditions noted are these: 168 h, time 7 day.
Data set [18] relates to Mus musculus. Nature of the data set: Antidiabetic activity in Nicotinamide/Streptozotocin induced male Balb/c mouse model assessed as relative liver weight at 63.81 ug/kg, ip treated for 21 days (reference value: 0.77 +/- 0.04 mg/g). The data set is classed as functional. The following applies: dose 63.81 µg/kg, time 21 day.
The target of another data set is T2, Pancreatic alpha-amylase (Sus scrofa, UniProt P00690).
T2 sequence (P00690 whole entry): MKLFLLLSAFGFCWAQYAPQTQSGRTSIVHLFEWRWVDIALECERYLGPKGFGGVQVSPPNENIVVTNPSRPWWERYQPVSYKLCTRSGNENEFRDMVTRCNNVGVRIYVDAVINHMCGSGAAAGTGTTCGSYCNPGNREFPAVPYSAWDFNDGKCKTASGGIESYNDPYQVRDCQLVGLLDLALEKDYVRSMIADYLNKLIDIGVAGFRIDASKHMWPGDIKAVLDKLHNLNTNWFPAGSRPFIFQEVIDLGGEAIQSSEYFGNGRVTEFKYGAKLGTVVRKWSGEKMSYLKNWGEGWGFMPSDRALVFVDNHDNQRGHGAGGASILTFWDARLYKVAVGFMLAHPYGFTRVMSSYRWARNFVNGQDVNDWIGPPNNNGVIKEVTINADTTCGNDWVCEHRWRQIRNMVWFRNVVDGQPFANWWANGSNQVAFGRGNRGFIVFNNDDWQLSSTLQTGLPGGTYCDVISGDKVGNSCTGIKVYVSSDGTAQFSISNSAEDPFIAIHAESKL
Nature of the data set: Inhibition of porcine pancreatic Alpha-amylase using starch as substrate pre-incubated for 20 mins followed by substrate addition and measured after 15 mins by DNS reagent based absorbance assay.

For data set [19], the target named is T1, Albumin. Kind of data set: Inhibition of D-glucose glycation in human serum albumin model by measuring ketoamine moieties incubated for 7 days by Nitroblue tetrazolium (NBT) reduction assay (reference value: 35.92 nmol/mL). The conditions noted are these: 168 h, time 7 day.
The target of data set [20] is T1, Albumin. Kind of data set: Inhibition of D-fructose glycation in human serum albumin model by measuring ketoamine moieties incubated for 14 days by Nitroblue tetrazolium (NBT) reduction assay (reference value: 129.58 nmol/mL). The following applies: 336 h, time 14 day.

T1 sequence (P02768 whole entry): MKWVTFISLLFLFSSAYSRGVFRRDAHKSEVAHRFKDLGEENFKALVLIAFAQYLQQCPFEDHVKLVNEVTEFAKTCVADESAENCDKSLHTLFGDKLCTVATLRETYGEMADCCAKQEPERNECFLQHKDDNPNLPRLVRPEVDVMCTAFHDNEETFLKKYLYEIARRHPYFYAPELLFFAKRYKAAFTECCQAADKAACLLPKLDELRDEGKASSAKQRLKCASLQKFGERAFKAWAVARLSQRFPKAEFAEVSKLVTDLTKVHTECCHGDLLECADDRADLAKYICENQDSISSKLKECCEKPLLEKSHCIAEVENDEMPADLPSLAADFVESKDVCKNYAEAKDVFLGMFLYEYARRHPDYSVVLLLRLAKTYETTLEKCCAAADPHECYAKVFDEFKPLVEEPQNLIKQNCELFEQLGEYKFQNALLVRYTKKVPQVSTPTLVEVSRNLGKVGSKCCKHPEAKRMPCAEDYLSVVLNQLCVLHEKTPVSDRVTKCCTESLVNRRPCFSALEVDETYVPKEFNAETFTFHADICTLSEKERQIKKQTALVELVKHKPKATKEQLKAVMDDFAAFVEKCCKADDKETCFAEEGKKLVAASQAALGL

As for `N=C(N)NCCC[C@H](N)C(=O)N[C@@H](Cc1c[nH]c2ccccc12)C(=O)N[C@@H](Cc1c[nH]c2ccccc12)C(=O)O` (H-Arg-Trp-Trp-OH), the Activity with Mus musculus [1] was 111.5 mg/dL; on Albumin [2], 135.37 nmol/mL; in the data set on Mus musculus [5], 97 U/L; in the data set on Mus musculus [7], 150 mg/dL; on Albumin [8], 12.342 nmol/mL; with Mus musculus [10] it was 53 mg/dL. Further, the Activity at Albumin [11] was 108.46 nmol/mL; with Mus musculus [14], 115 mg/dL; with Mus musculus [16], 11 mg/dL; at Albumin [17], 113.45 nmol/mL; in the data set on Mus musculus [18], 1.22 mg/g; on Albumin [19] it was 12.579 nmol/mL. The Activity at Albumin [20] stood at 91.22 nmol/mL. Also, the OD on Albumin [3] was 1.207; on Albumin [4], 2.555; at Albumin [6], 0.482; on Albumin [9] it was 2.301; at Albumin [15], 1.236. The “inhibition (INH)” value came to 16.45% on Albumin [12] and 78% on Albumin [13]. Also, at Pancreatic alpha-amylase, the IC50 is 96 µM.

Broadly, the IC50 is the concentration at which inhibition is half-maximal. High values mean weaker potency in that assay, low ones greater potency in that assay.
